Assays:
Type in all cases: cell-based
SK-MEL-28 = assay: SRB colorimetric cell growth inhibition assay, SK-MEL-28; conditions: Homo sapiens, SK-MEL-28, MEL-28; for GI50: GI=growth inhibition, read-out: GI50 MEL-28; for CC50: cell killing (cytotoxic effect), read-out: LC50 MEL-28; for IC (TGI): total growth inhibition (cytostatic effect), read-out: TGI MEL-28
From the text: (§1) The finality of these assays is to interrupt the growth of an “in vitro” tumor cell culture by means a continued exhibition of the cells to the sample to be testing.
(§2) A colorimetric type of assay, using sulforhodamine B (SRB) reaction has been adapted for a quantitative measurement of cell growth and viability (following the technique described by P. A. Skehan, et al., J. Natl. Cancer Inst. 1990, 82, 1107-1112).
(§3) This form of assay employs 96 well cell culture microplates of 9 mm diameter (T. Mosmann et al., J. of Immunological Methods 1983, 65, 55-63; G. T. Faircloth et al., J. of Tissue and Culture Methods 1988, 11, 201-205).
(§4) Most of the cell lines are obtained from American Type Culture Collection (ATCC) derived from different human cancer types.
(§5) The values for mean +/− SD of data from triplicate wells are calculated. Some parameters for cellular responses can be calculated: GI=growth inhibition, TGI=total growth inhibition (cytostatic effect) and LC=cell killing (cytotoxic effect).

PANC-1 = assay: SRB colorimetric cell growth inhibition assay, PANC-1; conditions: Homo sapiens, PANC-1, PANC-1; for GI50: GI=growth inhibition, read-out: GI50 PANC-1; for CC50: cell killing (cytotoxic effect), read-out: LC50 PANC-1; for IC (TGI): total growth inhibition (cytostatic effect), read-out: TGI PANC-1
From the text: as §1, §2, §3, §4, §5

LoVo-Dox = assay: SRB colorimetric cell growth inhibition assay, LoVo-Dox (MDR); conditions: Homo sapiens, LOVO-DOX; for GI50: GI=growth inhibition, read-out: GI50 LOVO-DOX; for CC50: cell killing (cytotoxic effect), read-out: LC50 LOVO-DOX; for IC (TGI): total growth inhibition (cytostatic effect), read-out: TGI LOVO-DOX
From the text: as §1, §2, §3, §4, §5

IGROV-ET = assay: SRB colorimetric cell growth inhibition assay, IGROV-ET (ET-743 resistant); conditions: Homo sapiens, IGROV-ET; for GI50: GI=growth inhibition, read-out: GI50 IGROV-ET; for CC50: cell killing (cytotoxic effect), read-out: LC50 IGROV-ET; for IC (TGI): total growth inhibition (cytostatic effect), read-out: TGI IGROV-ET
From the text: as §1, §2, §3, §4, §5

LNCaP = assay: SRB colorimetric cell growth inhibition assay, LNCaP; conditions: Homo sapiens, LNCaP, LN-caP; for GI50: GI=growth inhibition, read-out: GI50 LN-caP; for CC50: cell killing (cytotoxic effect), read-out: LC50 LN-caP; for IC (TGI): total growth inhibition (cytostatic effect), read-out: TGI LN-caP
From the text: as §1, §2, §3, §4, §5

IGROV = assay: SRB colorimetric cell growth inhibition assay, IGROV; conditions: Homo sapiens, IGROV; for GI50: GI=growth inhibition, read-out: GI50 IGROV; for CC50: cell killing (cytotoxic effect), read-out: LC50 IGROV; for IC (TGI): total growth inhibition (cytostatic effect), read-out: TGI IGROV
From the text: as §1, §2, §3, §4, §5

HeLa = assay: SRB colorimetric cell growth inhibition assay, HeLa; conditions: Homo sapiens, HeLa; for GI50: GI=growth inhibition, read-out: GI50 HELA; for CC50: cell killing (cytotoxic effect), read-out: LC50 HELA; for IC (TGI): total growth inhibition (cytostatic effect), read-out: TGI HELA
From the text: as §1, §2, §3, §4, §5

DU-145 = assay: SRB colorimetric cell growth inhibition assay, DU-145; conditions: Homo sapiens, DU-145, DU-145; for GI50: GI=growth inhibition, read-out: GI50 DU-145; for CC50: cell killing (cytotoxic effect), read-out: LC50 DU-145; for IC (TGI): total growth inhibition (cytostatic effect), read-out: TGI DU-145
From the text: as §1, §2, §3, §4, §5

LoVo = assay: SRB colorimetric cell growth inhibition assay, LoVo; conditions: Homo sapiens, LoVo; for GI50: GI=growth inhibition, read-out: GI50 LOVO; for CC50: cell killing (cytotoxic effect), read-out: LC50 LOVO; for IC (TGI): total growth inhibition (cytostatic effect), read-out: TGI LOVO
From the text: as §1, §2, §3, §4, §5

SK-BR-3 = assay: SRB colorimetric cell growth inhibition assay, SK-BR-3; conditions: Homo sapiens, SK-BR-3, SK-BR-3
From the text: as §1, §2, §3, §4, §5

HeLa-APL = assay: SRB colorimetric cell growth inhibition assay, HeLa-APL (aplidine resistant); conditions: Homo sapiens, HELA-APL; for GI50: GI=growth inhibition, read-out: GI50 HELA-APL; for CC50: cell killing (cytotoxic effect), read-out: LC50 HELA-APL; for IC (TGI): total growth inhibition (cytostatic effect), read-out: TGI HELA-APL
From the text: as §1, §2, §3, §4, §5

A-549 = assay: SRB colorimetric cell growth inhibition assay, A-549; conditions: Homo sapiens, A549, A-549; for GI50: GI=growth inhibition, read-out: GI50 A-549; for CC50: cell killing (cytotoxic effect), read-out: LC50 A-549; for IC (TGI): total growth inhibition (cytostatic effect), read-out: TGI A-549
From the text: as §1, §2, §3, §4, §5

HT-29 = assay: SRB colorimetric cell growth inhibition assay, HT-29; conditions: Homo sapiens, HT-29, HT-29; for GI50: GI=growth inhibition, read-out: GI50 HT-29; for CC50: cell killing (cytotoxic effect), read-out: LC50 HT-29; for IC (TGI): total growth inhibition (cytostatic effect), read-out: TGI HT-29
From the text: as §1, §2, §3, §4, §5

K-562 = assay: SRB colorimetric cell growth inhibition assay, K-562; conditions: Homo sapiens, K562, K-562
From the text: as §1, §2, §3, §4, §5

Structure (SMILES)	GI50 (SK-MEL-28) [nM]	CC50 (SK-MEL-28) [nM]	IC (TGI) (SK-MEL-28) [nM]	GI50 (PANC-1) [nM]	CC50 (PANC-1) [nM]	IC (TGI) (PANC-1) [nM]	GI50 (LoVo-Dox) [nM]	CC50 (LoVo-Dox) [nM]	IC (TGI) (LoVo-Dox) [nM]	GI50 (IGROV-ET) [nM]	CC50 (IGROV-ET) [nM]	IC (TGI) (IGROV-ET) [nM]	GI50 (LNCaP) [nM]	CC50 (LNCaP) [nM]	IC (TGI) (LNCaP) [nM]	GI50 (IGROV) [nM]	CC50 (IGROV) [nM]	IC (TGI) (IGROV) [nM]	GI50 (HeLa) [nM]	CC50 (HeLa) [nM]	other results
CC[C@H](C)[C@H](N)C(=O)Oc1ccc(-c2c3c4cc(OC)c(OC(=O)[C@@H](N)[C@@H](C)CC)cc4oc(=O)c3n3ccc4cc(OC(=O)[C@@H](N)[C@@H](C)CC)c(OC)cc4c23)cc1OC [Compound 209]	32.8	480	83.9	67.4	1030	282	137	2600	488	31.7	345	70.1	15.8	233	56	33.7	477	124	66.2	1010	IC (TGI) (HeLa): 269 nM; GI50 (DU-145): 4.29 nM; CC50 (DU-145): 40.4 nM; IC (TGI) (DU-145): 11.9 nM; GI50 (LoVo): 119 nM; CC50 (LoVo): 527 nM; IC (TGI) (LoVo): 251 nM; GI50 (SK-BR-3; GI=growth inhibition, read-out: GI50 SK-BR-3): 47.8 nM; CC50 (SK-BR-3; cell killing (cytotoxic effect), read-out: LC50 SK-BR-3): 101 nM; IC (TGI) (SK-BR-3; total growth inhibition (cytostatic effect), read-out: TGI SK-BR-3): 69.5 nM; GI50 (HeLa-APL): 82.7 nM; CC50 (HeLa-APL): 517 nM; IC (TGI) (HeLa-APL): 221 nM; GI50 (A-549): 42.8 nM; CC50 (A-549): 713 nM; IC (TGI) (A-549): 195 nM; GI50 (HT-29): 3380 nM; CC50 (HT-29): 10500 nM; IC (TGI) (HT-29): 9990 nM
COc1cc2c(cc1O)oc(=O)c1c2c(-c2ccc(OC)c(OC)c2)c2c3cc(OC)c(O)cc3ccn21 [Compound 233]	169	19500	4750	341	19500	19500	1050	19500	15400	107	19500	721	126	3720	557	49.9	19500	142	191	16000	GI50 (K-562; GI=growth inhibition, read-out: GI50 K-562): 95.8 nM; CC50 (K-562; cell killing (cytotoxic effect), read-out: LC50 K-562): 8610 nM; IC (TGI) (K-562; total growth inhibition (cytostatic effect), read-out: TGI K-562): 1090 nM; IC (TGI) (HeLa): 3820 nM; GI50 (DU-145): 78.3 nM; CC50 (DU-145): 19500 nM; IC (TGI) (DU-145): 180 nM; GI50 (LoVo): 545 nM; CC50 (LoVo): 19500 nM; IC (TGI) (LoVo): 1310 nM; GI50 (HeLa-APL): 417 nM; CC50 (HeLa-APL): 14300 nM; IC (TGI) (HeLa-APL): 3150 nM; GI50 (A-549): 312 nM; CC50 (A-549): 19500 nM; IC (TGI) (A-549): 2060 nM; GI50 (HT-29): 19500 nM; CC50 (HT-29): 19500 nM; IC (TGI) (HT-29): 19500 nM
